Values of other authors in patent US20030211175A1, “Methods and compositions for dietary supplements” (priority 2002, published 2003).

Chromium picolinate
reducing an elevated blood glucose level (human): moderately effective
toxicity (in vivo): considerable toxicity
